SMILES strings stand for the structures. Where two headings read alike, the source gives them in different places.

The target of this test is canine TRPM8 (Canis lupus familiaris, UniProt Q1A7N1). In words: In Vitro Canine TRPM8 Functional Assay (Ca2+ fluorescence, icilin activation). In kind it is cell-based. To be noted: for IC50: read-out: IC50; for inhibition at 0.2 µM: read-out: % Inh @ 0.2; for inhibition at 0.5 µM: compound at 0.5 μM, read-out: % Inh @ 0.5. As to the method: The functional activity of compounds of the formula (I) was determined by measuring changes in intracellular calcium concentration using a Ca^2+-sensitive fluorescent dye. The changes in fluorescent signal were monitored by a fluorescence plate reader, either a FLIPR™ (Molecular Devices) or FDSS (Hamamatsu).
Sequence of canine TRPM8 (Q1A7N1 1-1104): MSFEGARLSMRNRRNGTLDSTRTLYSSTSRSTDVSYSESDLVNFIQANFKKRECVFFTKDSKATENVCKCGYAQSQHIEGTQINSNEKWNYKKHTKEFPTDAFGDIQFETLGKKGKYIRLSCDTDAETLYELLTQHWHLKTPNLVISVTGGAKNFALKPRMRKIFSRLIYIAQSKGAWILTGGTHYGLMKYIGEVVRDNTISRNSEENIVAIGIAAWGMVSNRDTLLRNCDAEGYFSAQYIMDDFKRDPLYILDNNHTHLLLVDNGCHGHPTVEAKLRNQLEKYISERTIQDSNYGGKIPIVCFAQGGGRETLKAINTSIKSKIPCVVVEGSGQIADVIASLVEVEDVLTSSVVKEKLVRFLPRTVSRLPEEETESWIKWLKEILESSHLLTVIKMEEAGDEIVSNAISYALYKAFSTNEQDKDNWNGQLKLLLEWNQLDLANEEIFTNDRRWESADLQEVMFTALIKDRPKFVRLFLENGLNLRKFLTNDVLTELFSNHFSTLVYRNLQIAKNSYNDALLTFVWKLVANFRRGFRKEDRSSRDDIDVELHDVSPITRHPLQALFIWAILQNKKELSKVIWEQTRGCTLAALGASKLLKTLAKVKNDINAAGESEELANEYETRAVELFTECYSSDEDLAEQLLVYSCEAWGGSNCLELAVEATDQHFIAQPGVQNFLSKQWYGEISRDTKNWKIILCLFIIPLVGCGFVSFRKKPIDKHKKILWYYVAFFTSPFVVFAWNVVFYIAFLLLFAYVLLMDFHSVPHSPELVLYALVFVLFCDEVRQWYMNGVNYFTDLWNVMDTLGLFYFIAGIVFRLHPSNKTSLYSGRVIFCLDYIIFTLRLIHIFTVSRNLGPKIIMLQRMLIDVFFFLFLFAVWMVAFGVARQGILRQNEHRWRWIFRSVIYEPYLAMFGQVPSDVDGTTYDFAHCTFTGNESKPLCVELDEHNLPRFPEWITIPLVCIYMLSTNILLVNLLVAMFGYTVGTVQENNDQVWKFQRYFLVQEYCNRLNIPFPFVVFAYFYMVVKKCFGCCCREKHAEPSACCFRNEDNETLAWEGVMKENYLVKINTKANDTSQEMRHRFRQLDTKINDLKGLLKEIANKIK
At 24 hrs prior to assay, HEK293 cells stably expressing canine TRPM8 were seeded in culture medium in black wall, clear-base poly-D-lysine coated 384-well plates (BD Biosciences, NJ, USA) and grown overnight in 5% CO2 at 37° C. On assay day, growth media was removed and cells were loaded with Calcium 3 Dye (Molecular Devices) for 35 min at 37° C., under 5% CO2 and then for 25 min at room temperature and atmosphere. Subsequently, cells were tested for agonist-induced increases in intracellular Ca^2+ levels using FLIPR™ or FDSS. Cells were challenged with a compound of the Formula (I) (at varying concentrations) and intracellular Ca^2+ was measured for 5 min prior to the addition of icilin to all wells to achieve a final concentration that produces approximately an 80% maximal response. EC50 or IC50 values for compounds of the present invention were determined from eight-point dose-response studies. Curves were generated using the average of quadruplicate wells for each data point.

The mark [1] stands for this setting: HEK293 cells stably expressing canine TRPM8, icilin activation, eight-point dose-response.
The mark [2] stands for this setting: compound at 0.2 μM, canine TRPM8, icilin activation.
The mark [3] stands for this setting: canine TRPM8, icilin activation.

Turning to `Cc1c(N(Cc2ccc(F)c(C(F)(F)F)c2)S(=O)(=O)CCCCn2ccnc2)sc2ccccc12` [Compound 779, N-(4-Fluoro-3-trifluoromethyl-benzyl)-N-(3-methyl-benzo[b]thiophen-2-yl)-4-(imidazol-1-yl)-butane-1-sulfonamide], the IC50 under setting [1] came to 48.7 nM. Also, the inhibition at 0.2 µM under setting [2] is 79%.
In the case of `Cc1c(N(Cc2ccc(F)c(F)c2)S(=O)(=O)N(C)C)sc2ccccc12` [Compound 44, N-(3,4-Difluoro-benzyl)-N-(3-methyl-benzo[b]thiophen-2-yl)-N′,N′-dimethylsulfamide], the IC50 under setting [1] is 7 nM. Further, the inhibition at 0.5 µM under setting [3] was 98%.
As for `COc1ccc(S(=O)(=O)N(Cc2ccc(F)c(C(F)(F)F)c2)c2cc3ccccc3s2)cc1` [Compound 134, N-(Benzo[b]thiophen-2-yl)-N-(4-fluoro-3-trifluoromethyl-benzyl)-4-methoxy-benzenesulfonamide], under setting [2], the inhibition at 0.2 µM stood at 30%.
Take `O=S(=O)(c1ccccc1)N(CCN1CCOCC1)c1sc2ccccc2c1Cl` [Compound 92, N-(3-Chloro-benzo[b]thiophen-2-yl)-N-(2-morpholin-4-yl-ethyl)-benzenesulfonamide]: the IC50 under setting [1] amounted to 68.2 nM. The inhibition at 0.2 µM under setting [2] amounted to 79%.
In the same order, the values of `CCCCCN(c1sc2ccccc2c1Br)S(=O)(=O)c1ccc(C(=O)O)cc1` [Compound 392, N-(3-Bromo-benzo[b]thiophen-2-yl)-N-(pentyl)-4-carboxy-benzenesulfonamide] are 7 nM and 93%.
As to `CS(=O)(=O)CS(=O)(=O)N(Cc1ccc(F)c(C(F)(F)F)c1)c1sc2ccccc2c1Br` [Compound 350, N-(3-Bromo-benzo[b]thiophen-2-yl)-N-(4-fluoro-3-trifluoromethyl-benzyl)-C-methanesulfonyl-methanesulfonamide], the inhibition at 0.2 µM under setting [2] was found to be 48%.
For the compound `Cc1c(N(CCC2CC2)S(=O)(=O)c2ccc(-c3noc(=O)[nH]3)cc2)sc2ccccc12` [Compound 613, N-(3-Methyl-benzo[b]thiophen-2-yl)-N-(cyclopropyl-ethyl)-4-(5-oxo-4,5-dihydro-[1,2,4]oxadiazol-3-yl)-benzenesulfonamide], under setting [1], the IC50 came out at 6.6 nM. Moreover, under setting [2], the inhibition at 0.2 µM was 101%.
Regarding `O=S1NC(c2ccc(S(=O)(=O)N(CCC(F)(F)F)c3sc4ccccc4c3Br)cc2)=NO1` (stereo not shown) [Compound 607, N-(3-Bromo-benzo[b]thiophen-2-yl)-N-(3,3,3-trifluoro-propyl)-4-(3H-[1,2,3,5]oxathiadiazole-2-oxide)-benzenesulfonamide], the IC50 under setting [1] was determined as 36.8 nM. In addition, the “% Inh @ 0.2 (μM)” value under setting [2] was 101%.
Regarding `O=C(O)c1ccc(S(=O)(=O)N(CCC(F)(F)F)c2cc3ccccc3s2)cc1` [Compound 456, N-(Benzo[b]thiophen-2-yl)-N-(3,3,3-trifluoro-propyl)-4-carboxy-benzenesulfonamide], under setting [2], the inhibition at 0.2 µM was 67%.
Still for that read-out and setting: to `COC(=O)c1ccc(CN(c2cc3ccccc3s2)S(=O)(=O)c2cccnc2)cc1` [Compound 380, N-(Benzo[b]thiophen-2-yl)-N-(4-carbomethoxy-benzyl)-pyridin-3-ylsulfonamide] belongs 24%.
For the compound `Cc1c(N(Cc2cccc(OC(F)(F)F)c2)S(=O)(=O)CCCBr)sc2ccccc12` [Compound 769, N-(3-Methyl-benzo[b]thiophen-2-yl)-N-(3-trifluoromethoxy-benzyl)-3-bromo-propane-1-sulfonamide], the IC50 under setting [1] turned out to be 44 nM. Moreover, the inhibition at 0.2 µM under setting [2] came to 85%.
Take `Cc1c(N(Cc2cccc(OC(F)(F)F)c2)S(=O)(=O)CCC(C)(C)O)sc2ccccc12` [Compound 763, N-(3-Methyl-benzo[b]thiophen-2-yl)-N-(3-trifluoromethoxy-benzyl)-3-hydroxy-3-methyl-butane-1-sulfonamide]: the IC50 under setting [1] was determined as 27.7 nM. For the same compound, the inhibition at 0.2 µM under setting [2] is 102%.
The like results for `Cc1c(N(Cc2ccc(OC(F)(F)F)cc2)S(C)(=O)=O)sc2ccccc12` [Compound 369, N-(3-Methyl-benzo[b]thiophen-2-yl)-N-(4-trifluoromethoxy-benzyl)-methanesulfonamide] were, in that order, 18 nM and 98%.
In the same order, the values of `Cc1c(N(CCN2CCCCC2)S(=O)(=O)c2ccccc2)sc2ccccc12` [Compound 96, N-(3-Methyl-benzo[b]thiophen-2-yl)-N-(2-piperidin-1-yl-ethyl)-benzenesulfonamide] are 4 nM and 98%.
`Cc1c(N(CCCCC(F)(F)F)S(=O)(=O)c2cnccc2N2CCOCC2)sc2ccccc12` [Compound 788, N-(3-Methyl-benzo[b]thiophen-2-yl)-N-(5,5,5-trifluoro-pentyl)-4-morpholino-3-pyridyl-sulfonamide]: the IC50 under setting [1] came to 25.9 nM.
In the case of `Cc1c(N(Cc2ccc(F)c(C(F)(F)F)c2)S(=O)(=O)c2cnc(Cl)c(Br)c2)sc2ccccc12` [Compound 330, N-(3-Methyl-benzo[b]thiophen-2-yl)-N-(4-fluoro-3-trifluoromethyl-benzyl)-5-bromo-6-chloro-pyridin-3-ylsulfonamide], the IC50 under setting [1] turned out to be 88 nM. The inhibition at 0.2 µM under setting [2] is 80%.
On to `CS(=O)(=O)Nc1ccc(S(=O)(=O)N(CCCCC(F)(F)F)c2sc3ccccc3c2Cl)cc1` [Compound 679, N-(3-Chloro-benzo[b]thiophen-2-yl)-4-methanesulfonylamino-N-(5,5,5-trifluoro-pentyl)-benzenesulfonamide], for which the IC50 under setting [1] is 57.9 nM. Also, the inhibition at 0.2 µM under setting [2] was 100%.
Turning to `CCCCN(c1cc2ccccc2s1)S(=O)(=O)c1ccc(N2CCN(C)CC2)cc1` [Compound 447, N-(Benzo[b]thiophen-2-yl)-N-(butyl)-4-(4-methyl-piperazin-1-yl)-benzenesulfonamide], the inhibition at 0.2 µM under setting [2] was 19%.
The same measure, in the same setting: to `CCN(c1sc2ccccc2c1C)S(=O)(=O)c1ccc(C(=O)OC)cc1` [Compound 402, N-(3-Methyl-benzo[b]thiophen-2-yl)-N-(ethyl)-4-carbomethoxy-benzenesulfonamide] belongs 38%.
For `CCCN(c1sc2ccccc2c1Br)S(=O)(=O)c1ccc(C(=O)O)cc1` [Compound 391, N-(3-Bromo-benzo[b]thiophen-2-yl)-N-(propyl)-4-carboxy-benzenesulfonamide], under setting [1], the IC50 was 47 nM. Under setting [2], the inhibition at 0.2 µM stood at 93%.
For the compound `CC1=C(N(Cc2ccc(F)c(C(F)(F)F)c2)S(=O)(=O)c2ccc(C(=O)O)cc2)S(=O)(=O)c2ccccc21` [Compound 634, N-(4-Fluoro-3-trifluoromethyl-benzyl)-N-(3-methyl-1,1-dioxo-benzo[b]thiophen-2-yl)-4-carboxy-benzenesulfonamide], the inhibition at 0.2 µM under setting [2] worked out at 55%.
On to `CS(=O)(=O)N(Cc1ccc(F)c(C(F)(F)F)c1)c1sc2ccccc2c1C=O` [Compound 208, N-(4-Fluoro-3-trifluoromethyl-benzyl)-N-(3-formyl-benzo[b]thiophen-2-yl)-methanesulfonamide], for which the IC50 under setting [1] worked out at 12 nM. For the same compound, the inhibition at 0.2 µM under setting [2] worked out at 96%.
As for `CCCCN(C1=Cc2ccccc2S1(=O)=O)S(=O)(=O)c1ccc(C(=O)OC)cc1` [Compound 430, N-(Butyl)-N-(1,1-dioxo-benzo[b]thiophen-2-yl)-4-carbomethoxy-benzenesulfonamide], the inhibition at 0.2 µM under setting [2] turned out to be 52%.
As to `COC(=O)c1ccc(S(=O)(=O)N(CCCF)c2sc3ccccc3c2C)cc1` [Compound 823, N-(3-Fluoro-propyl)-N-(3-methyl-benzo[b]thiophen-2-yl)-4-carbomethoxy-benzenesulfonamide], the inhibition at 0.2 µM (0.2 μM compound, HEK293 cells stably expressing canine TRPM8, icilin activation) stood at 102%. Moreover, the IC50 (HEK293 cells stably expressing canine TRPM8, icilin activation, average of two or more determinations) was 22 nM.
In the case of `CC(=O)c1c(N(Cc2ccc(F)c(C(F)(F)F)c2)S(=O)(=O)c2ccc(C#N)cc2)sc2ccccc12` [Compound 387, N-(3-Acetyl-benzo[b]thiophen-2-yl)-4-cyano-N-(4-fluoro-3-trifluoromethyl-benzyl)-benzenesulfonamide], the concentration for half-maximal inhibition (IC50) under setting [1] was 31 nM. The inhibition at 0.2 µM under setting [2] is 98%.
As to `CCCCN(c1sc2ccccc2c1C(C)=O)S(=O)(=O)CC` [Compound 121, N-(3-Acetyl-benzo[b]thiophen-2-yl)-N-(butyl)-ethanesulfonamide], the IC50 under setting [1] stood at 35 nM. For the same compound, the inhibition at 0.2 µM under setting [2] is 86%.
The like results for `CC(C)c1c(N(Cc2ccc(F)c(C(F)(F)F)c2)S(=O)(=O)c2ccccc2)sc2ccccc12` [Compound 547, N-(4-Fluoro-3-trifluoromethyl-benzyl)-N-(3-isopropyl-benzo[b]thiophen-2-yl)-benzenesulfonamide] were, in that order, 7.4 nM and 105%.
With `O=S(=O)(c1ccccc1)N(Cc1cccnc1)c1cc2ccccc2s1` [Compound 53, N-(Benzo[b]thiophen-2-yl)-N-(pyridin-3-ylmethyl)-benzenesulfonamide], the IC50 under setting [1] came out at 164 nM. Under setting [3], the inhibition at 0.5 µM was 97%.
In the same order, the values of `CS(=O)(=O)CS(=O)(=O)N(Cc1ccc(F)c(F)c1)c1cc2ccccc2s1` [Compound 133, N-(Benzo[b]thiophen-2-yl)-N-(3,4-difluoro-benzyl)-C-methanesulfonyl-methanesulfonamide] are 60 nM and 97%.

For the origin of these results see US9434711B2 (Janssen Pharmaceutica, NV, priority 2007, dated 2016).
